Measurements as given in patent publication US8207222B2, “Nitric oxide releasing derivatives of paracetamol” (Council of Scientific and Industrial Research, priority 2007, dated 2012).
Several values for one entry are separate records, joined by “and”; a condition that tells them apart may be missing. Identical values can stand only once. Entries after “also recorded” stand apart in the source; their conditions may differ. Marks after values point to notes of the source that are not given here.

Tests used:
[1] = test system: SGPT/ALT; test: plasma marker of liver injury SGPT/ALT, spectrophotometric kit; format: in vivo; settings: 1000 mg/kg, 6 hr after administration, vs basal value, mean ± SEM
Procedure: (§1) Biochemical Assays (Table 3 and FIG. 2 Sheet No. 1 for SGPT(ALT), and Table 4 and FIG. 3 Sheet No. 2 for ALP): Paracetamol was given at a dose of 1000 mg/Kg and an equivalent dose of 1000 mg/Kg of the derivatives 12 and 13 was given p.o. Before administration blood samples of each animal were taken and after 6 hrs the animals were sacrificed to collect blood samples, and the serum was separated out. Measurement of plasma markers of liver Serum Glutamate oxaloacetate transaminase (SGOT) pyruvate transaminase (SGPT) and Alkaline Phosphatase (ALP) were assayed spectrophotometrically using commercially available kits.
(§2) The animals were divided into different groups containing 6-8 animals in each group. Animals were lightly anaesthetized with diethyl ether and blood samples were collected which served as the basal reading of the enzyme to be analyzed. These groups of rats were then treated with paracetamol (1000 mg/Kg, i.p.), and equivalent dose of the test compounds. Control group was treated with an equal volume of vehicle (0.9% w/v sodium chloride containing 20% v/v tween-80). Animals were lightly anesthetized with ethyl ether and blood samples were collected and allowed to coagulate at room temperature for 1 hr, serum was then separated by centrifugation (5,000 rpm for 10 min) at 4° C. and stored at −40.0° C. till estimation. Plasma markers of liver injury were assayed spectrophotometrically using following commercially available kits according to standard laboratory techniques:
(§3) […]. Enzymes like alkaline phosphatase (ALP, EC 3.1.3.1), serum glutamate pyruvate transaminase (SGPT) or alanine aminotransferase (ALT) ([…]) and the total proteins are considered as plasma markers of liver injury. Nitric oxide releasing paracetamol derivatives 12 and 13 were evaluated for their effect on the markers of liver injury like enzymes ALP and SGPT/ALT. The plasma level of these enzymes is found to increase in the case of liver toxicity.

[2] = biological target: T1, cox-2 (ovine) (Ovis aries, UniProt P79208); test: In vitro cox-2 (ovine) inhibitory assay; format: biochemical; settings: prostaglandin quantified by EIA, concentration not given
T1 construct: purchased Cayman Chemical Company, USA
T1 sequence (P79208 17-603): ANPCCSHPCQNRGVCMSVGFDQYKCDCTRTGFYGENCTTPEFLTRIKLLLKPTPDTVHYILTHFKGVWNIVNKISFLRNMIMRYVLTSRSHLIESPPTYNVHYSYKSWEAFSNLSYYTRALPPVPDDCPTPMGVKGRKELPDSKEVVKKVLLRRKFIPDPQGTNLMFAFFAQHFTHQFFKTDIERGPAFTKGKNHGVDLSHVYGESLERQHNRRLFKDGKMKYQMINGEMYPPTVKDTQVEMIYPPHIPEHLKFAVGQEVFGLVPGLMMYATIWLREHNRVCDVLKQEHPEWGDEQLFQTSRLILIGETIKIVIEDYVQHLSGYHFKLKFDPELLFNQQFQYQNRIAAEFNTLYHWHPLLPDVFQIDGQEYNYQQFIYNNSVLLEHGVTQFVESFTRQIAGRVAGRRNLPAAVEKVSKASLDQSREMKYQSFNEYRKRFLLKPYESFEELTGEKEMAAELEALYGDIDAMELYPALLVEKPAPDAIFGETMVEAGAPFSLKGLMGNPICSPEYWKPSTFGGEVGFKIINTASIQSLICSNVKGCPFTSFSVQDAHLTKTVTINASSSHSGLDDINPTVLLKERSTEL
From the text: In vitro cox-2 (ovine) inhibitory assay: The prostaglandin product is quantified via enzyme immunoassay (EIA) using a broadly specific antibody that binds to all major prostaglandin compounds. Assay kit was purchased from Cayman Chemical Company, USA.

[3] = test system: ALP; format: in vivo; settings: 1000 mg/kg; 6 hr after administration, vs basal value; mean ± SEM
Procedure: as §1, §2, §3

[4] = test system: carrageenan induced rat paw edema; test: carrageenan induced rat paw edema model (anti-inflammatory activity); format: in vivo, Wistar rats; settings: 100 mg/kg p.o.; for % Increase in paw volume Mean ± SEM 2 hr: 2 hr after carrageenan challenge; for anti-inflammatory activity (in words): 2 hr and 4 hr; for % Increase in paw volume Mean ± SEM 4 hr: 4 hr after carrageenan challenge
From the text: Animals: Wistar rats (male 150-200 g) of both sex and Laca mice (male, 25-35 g) procured from Central Animal House, Punjab University, Chandigarh, India were used. Animals were housed under standard laboratory conditions and maintained on rat chow, Animals were allowed free access to food and water until used and fasted 24 hr prior to studies.
Experimental conditions: Unless otherwise stated, the following conditions were employed in all experiments. The test compounds were suspended in 0.5% carboxymethylcellulose (CMC) and administered per orally (p.o.). Control animals were given the corresponding amount of vehicle (0.5%, CMC).
Anti-inflammatory activity (Table 1): Anti-inflammatory activity was determined by using carrageenan induced rat paw edema model. Rats were divided into different groups and the drugs were administered to each group.
Paw edema in rats (various modifications and various irritants) is the most widely used method for testing acute and subacute inflammation. It is based upon the ability of anti-inflammatory agents to inhibit the edema produced in the hind paw of the rat after injection of a phlogistic agent. Many phlogistic agents (irritants) have been used, such as brewer's yeast, formaldehyde, dextran, egg albumin, kaolin, sulfated polysaccharides like carrageenin or naphthoylheparamine. The volume of the injected paw is measured before and after application of the irritant and the paw volume of the treated animals is compared to the control. The details of the experiment carried out are described below:
The paracetamol (1) and synthesized NO-releasing derivatives (12 and 13) were administered p.o. at a dose of 100 mg/kg, p.o., emulsified in 0.5% sodium carboxy methyl cellulose (0.5% sodium CMC). Anti-inflammatory activity was determined by using carrageenan induced rat paw edema model. Rats were divided into different groups and the drugs/derivatives were administered to each group. Acute edema was induced in left hind paw of rats by injecting freshly prepared solution of carrageenan (Type IV, 0.1 ml, 1%) under plantar region of left hind paw. In the right paw, saline ([…], 0.9%) was injected, which served as control for comparison. The increase in paw volume was measured by using plethysmometer (water displacement, UGO BASILE, Varese, Italy) at 2 hr and 4 hr after carrageenan challenge. Percentage change (increase) in paw volume was calculated and expressed as the amount of inflammation. % increase in paw volume at any time=(V1−Vr)/Vr×100
Where, V1 Volume of left paw • Vr=Volume of right paw (control)

[5] = test system: liver; test: liver histopathology (haematoxylin and eosin); format: in vivo, mouse; settings: 1000 mg/kg, i.p.; H&E stain
From the text: Histopathology (FIG. 5 Sheet No. 3) For liver histopathology, the livers were removed and portions were fixed in 10% buffered formalin (pH 7.4). They were then processed by standard histopathological techniques, stained with Haematoxylin and Eosin (H&E), and examined for morphologic evaluation for liver injury.^21

[6] = test system: acetic acid induced writhing; test: acetic acid induced writhing assay (analgesic activity); format: in vivo, Laca mice; settings: 100 mg/kg p.o., 30 min prior to i.p. acetic acid, mean ± SEM
Procedure: Animals: Wistar rats (male 150-200 g) of both sex and Laca mice (male, 25-35 g) procured from Central Animal House, Punjab University, Chandigarh, India were used. Animals were housed under standard laboratory conditions and maintained on rat chow, Animals were allowed free access to food and water until used and fasted 24 hr prior to studies. Analgesic activity (Table 2 and FIG. 1 Sheet No. 1 FIG. 3): Analgesic activity was determined by using abdominal writhing assay. Mice were divided into different groups containing 6 animals in each group. Pain can be induced by injection of irritants into the peritoneal cavity of mice. The animals react with a characteristic stretching behaviour which is called writhing. An irritating agent such as phenylquinone or acetic acid can be injected intraperitoneally to mice and the stretching reaction is evaluated. The most commonly used methods for measuring peripheral analgesic activity are the writhing tests in mice. The details of the experiment carried out are mentioned below: Analgesic activity was determined against acetic acid induced writhing assay. Writhing was induced by intraperitoneal (i.p.) injection of freshly prepared acetic acid solution. Mice were per orally (p.o.) administered paracetamol (1) and synthesized NO-releasing derivatives (12 and 13) at a dose of 100 mg/kg, emulsified in 0.5% sodium carboxy methyl cellulose (sodium CMC) vehicle, 30 min prior to i.p. acetic acid (1% w/v in saline pH 2.7, 10 ml/kg, i.p.). Animals were immediately transferred to individual observation chambers and number of writhes (constriction of abdomen, turning of trunk, and extension of hind Limbs) were monitored over the following 20 minutes, beginning 3 min after the injection of acetic acid. At the end of observation period the animals were killed by cervical dislocation and exsaguination. The average number of writhes in each group of drug treated mice was compared with that of the control group and degree of analgesia was expressed as % inhibition calculated from the equation: % Inhibition=(1−Nt/Nc)×100 Where, Nc=number of writhes in control • Nt=number of writhes in drug treated mice

[7] = in vivo nitric oxide release, serum nitrate/nitrite by Cayman kit; settings: for NO serum level: dose of 100 mg/kg body weight, control 182.1±0.68, in µmol/L; for serum nitrate/nitrite concentration: 6 hours after 100 mg/Kg p.o., control 182.1 ± 0.68
Procedure: 100 mg/Kg of the derivatives 12 and 13 was given p.o. After 6 hours the animals were sacrificed to collect blood samples and the serum was separated out to find out the levels of NO. Plasma nitrate/nitrite concentration level was measured by commercially available Cayman Kit.

Row | SMILES | % INCREASE IN SGPT/ALT LEVEL ([1]; listed as Paracetamol (1)) [%] | % INCREASE IN SGPT/ALT LEVEL ([1]; listed as paracetamol (1)) | cox-2 (ovine) inhibition [2] [%] | % INCREASE IN ALP LEVEL [3] [%] | % Increase in paw volume Mean ± SEM 2 hr [4] [%] | % Increase in paw volume Mean ± SEM 2 hr ([4]; listed as paracetamol) [%] | % Increase in paw volume Mean ± SEM 2 hr ([4]; listed as paracetamol (1)) [%] | anti-inflammatory activity (in words) [4] | % Increase in paw volume Mean ± SEM 4 hr [4] | % Increase in paw volume Mean ± SEM 4 hr ([4]; listed as paracetamol) [%] | % Increase in paw volume Mean ± SEM 4 hr ([4]; listed as paracetamol (1)) [%] | liver damage in histopathology (light microscopy) [5] | % INHIBITION IN WRITHINGS [6] [%] | % INHIBITION IN WRITHINGS ([6]; listed as paracetamol (1)) [%] | NO serum level [7] | serum nitrate/nitrite concentration [7] [µmol/L] | % INCREASE IN SGPT/ALT LEVEL [1] | melting point [°C]
1 | CC(=O)Nc1ccc(O)cc1 [Compound 1, N-(4-hydroxyphenyl)-acetamide, reference compound] | 83.11 ± 3.3 | more than 80% | 24.0 | 15.75 ± 1.07 | 38.37 ± 1.26 | 38.37±1.26 | 38.37±1.26 | No significant activity | 58.92 ± 1.56% | 58.92±1.56 | 58.92±1.56 | ballooning degeneration, sinusoidal decongestion, portal triad inflammation and spoty necrosis in Zone I | 45.36 ± 1.34 | 45.36±1.34 |  |  |  | 
2 | CC(=O)Nc1ccc(OCCO[N+](=O)[O-])cc1 [Compound 12, N-[4-(2-Nitrooxy-ethoxy)-phenyl]-acetamide] |  |  | 21.0 | 4.17 ± 0.62 | 32.68±1.45 |  |  | good anti-inflammatory activity | 26.44±0.10% and 26.44 ± .10% |  |  | Mild ballooning degeneration | 58.35±1.50 |  | 354.2±2.17 | 354.2 ± 2.17 | 27.94 ± 2.7*^,# % | 
3 | CC(=O)Nc1ccc(OCCCCCO[N+](=O)[O-])cc1 [Compound 13, N-[4-(5-Nitrooxy-pentoxy)-phenyl]-acetamide] |  |  | 32.5 | 2.85 ± 0.83 | 31.15±1.31 |  |  |  | 28.45±1.28% |  |  | didn't cause any significant damage to the liver; also recorded: no significant damage | 61.80±1.69 |  | 265.4±2.47 | 265.4 ± 2.47 | 11.72 ± 1.4*^,# % | 
4 | CC(=O)Nc1ccc(OCCCCO[N+](=O)[O-])cc1 [Compound 19, N-[4-(4-Nitrooxy-butoxy)-phenyl]-acetamide] |  |  |  |  |  |  |  |  |  |  |  |  |  |  |  |  |  | 92 to 98
